System: human basophils
Assay: Histamine release from human basophils (HHB), anti-IgE challenge
Type: cell-based
Set-up: key to HHB % Inhibition of Histamine Release at 33 µM: *: Indicates not active at 33 µM
Conditions: 33 µM drug; human basophils challenged with anti-IgE; 2-thioxo-4-oxazolidinone series
Description: HISTAMINE RELEASE FROM HUMAN BASOPHILS (hereinafter HHB)
The HHB assay quantitates active histamine release, and its inhibition by drugs, from basophils of human blood. Thus, the assay provides evaluation of the compounds of formula I for treating the conditions or diseases as is the present invention. As described herein the assay includes modifications of the method described by R. P. Siraganian in "An Automated Continuous-Flow System for the Extraction and Fluorometric Analysis of Histamine", Anal. Biochem., 57, 383-394 (1974).
Blood is drawn from allergic donors (chosen on the basis of adequate histamine release induced by a challenge), using standard venipuncture methods, into Vacutainers with EDTA in water as anticoagulant. The blood samples are placed briefly on a rotary mixer. The blood is mixed with Hespan (hydroxy ethyl starch, 0.5 ml per 1.0 ml of blood), the tube inverted several times to mix and then left undisturbed at room temperature until a sharp separation is observed between the settled red cells and the leukocyte and platelet-rich plasma. This usually occurs within 35-45 minutes.
The plasma fraction is removed and centrifuged for 12 minutes at 4°C at 1050 RPM (100 Xg). The platelets remain in the plasma and are discarded. The pelleted leukocytes are shaken gently to disrupt the cell button and washed twice with HA buffer containing 0.005 M EDTA and resuspended in HACM buffer to approximately one-quarter the original blood volume. A sample is prepared for Hematology, where a total white blood cell and platelet count is done using a Coulter Counter.
Aliquots (0.1 ml) of cells are added to triplicate assay tubes containing 0.4 ml of either 6% perchloric acid (for total histamine content), vehicle control (for spontaneous release), or drug. The tubes are incubated at room temperature for 8 minutes, and then placed in a 37°C water bath for 2 more minutes. Buffer or challenge agents (at 37°C) are added to the tubes and they are incubated for an additional 45 minutes at 37°C in a shaking water bath. The tubes are then spun at 2000 RPM (1200 g) for 3 minutes to pellet the cells and the supernatants are removed and assayed for histamine by the fluorometric method.
A 300 µM stock solution of each test compound is prepared in distilled water, using 0.5 ml DMSO/100 ml and/or 0.2 ml of 1N NaOH or HCl and/or heat to aid in dissolution. Five ml of the stock solution is diluted (1:2) with 5 ml of two times concentrated HACM buffer to yield the stock working concentration of 150 µM. When added to the cells and stimulus, a final test concentration of 100 µM drug results. Further dilutions are made with HACM buffer for 33, 10, 3.3, 1.0 µM, etc.
Short ragweed and house dust extracts (Greer Laboratories, Inc.) are supplied as aqueous extracts in stock concentrations of 40,000 and 10,000 protein nitrogen units per milliliter (PNU/ml), respectively. Aqueous solutions of anti-IgE antisera (rabbit-raised antibody) are purchased from Dako via Accurate Chemicals. The aqueous solutions of ragweed, house dust, and anti-IgE are diluted 1:2 with two times concentrated HACM and then further diluted with HACM to yield final stock concentrations of 6000 PNU/ml for ragweed and house dust and 1:50 dilution for the anti-IgE antisera. Further dilutions for working solutions are made in HACM buffer. All stock and working solutions are stored at 4°C. Working solutions comprise 1/6 of the final volume in the cell reaction, therefore, working solutions of challenge agents are made up six times the required final concentration.
In each experiment, cells are challenged according to the previously determined sensitivity of that donor to the particular challenge agent. Short ragweed and house dust concentrations are expressed in PNU/ml, and anti-IgE antisera is expressed as dilutions, e.g., IE-5 (1:100,000), 3E-5 (1:30,000), and IE-4 (1:10,000).
The total histamine concentration in the "total" (acid-treated) samples must be 15 ng/ml to be acceptable. […]

SMILES | inhibition at 33 µM | HHB % Inhibition of Histamine Release at 33 µM
COc1cc(C=C2OC(=S)NC2=O)ccc1O [Example 4, 5-[(4-Hydroxy-3-methoxyphenyl)methylene]-2-thioxo-4-oxazolidinone] | 77% | 
COc1ccc(C=C2OC(=S)NC2=O)cc1OC [Example 5, 5-[(3,4-Dimethoxyphenyl)methylene]-2-thioxo-4-oxazolidinone] | 43% | 
COc1cc(C=C2OC(=S)NC2=O)cc(OC)c1O [Example 6, 5-[(4-Hydroxy-3,5-dimethoxyphenyl)methylene]-2-thioxo-4-oxazolidinone] | 89% | 
COc1cc(C=C2OC(=S)NC2=O)cc(Br)c1O [Example 8, 5-[(3-Bromo-4-hydroxy-5-methoxyphenyl)methylene]-2-thioxo-4-oxazolidinone] |  | *
COc1cc(OC)c(OC)cc1C=C1OC(=S)NC1=O [Example 9, 2-Thioxo-5-[(2,4,5-trimethoxyphenyl)methylene]-4-oxazolidinone] |  | *
COc1cc(C=C2OC(=S)NC2=O)cc(OC)c1OC [Example 10, 2-Thioxo-5-[(3,4,5-trimethoxyphenyl)methylene]-4-oxazolidinone] | 76% | 
O=C1NC(=S)OC1=Cc1ccc(O)c(Br)c1 [Example 13, 5-[(3-Bromo-4-hydroxyphenyl)methylene]-2-thioxo-4-oxazolidinone] | 66% | 

Same assay, conditions: 33 µM drug; human basophils challenged with anti-IgE; thiazolidinedione series

SMILES | inhibition at 33 µM
COc1cc(C=C2SC(=O)NC2=O)cc(OC)c1O [Example 1, 5-[(4-Hydroxy-3,5-dimethoxyphenyl)methylene]-2,4-thiazolidinedione] | 60%
CC(C)(C)c1cc(C=C2SC(=O)NC2=O)cc(C(C)(C)C)c1O [Example 2, 5-[[3,5-Bis(1,1-dimethylethyl)-4-hydroxyphenyl]methylene]-2,4-thiazolidinedione] | 49%
COc1cc(C=C2SC(=O)NC2=O)ccc1O [Example 3] | 81%

Target: T1, cellular 5-lipoxygenase (Rattus norvegicus, UniProt P12527)
T1 construct: ARBL/ARBC Whole Cell 5-Lipoxygenase and Cyclooxygenase Assays; host or cells: RBL-1 (rat basophilic leukemia) cells
T1 sequence (P12527 1-673): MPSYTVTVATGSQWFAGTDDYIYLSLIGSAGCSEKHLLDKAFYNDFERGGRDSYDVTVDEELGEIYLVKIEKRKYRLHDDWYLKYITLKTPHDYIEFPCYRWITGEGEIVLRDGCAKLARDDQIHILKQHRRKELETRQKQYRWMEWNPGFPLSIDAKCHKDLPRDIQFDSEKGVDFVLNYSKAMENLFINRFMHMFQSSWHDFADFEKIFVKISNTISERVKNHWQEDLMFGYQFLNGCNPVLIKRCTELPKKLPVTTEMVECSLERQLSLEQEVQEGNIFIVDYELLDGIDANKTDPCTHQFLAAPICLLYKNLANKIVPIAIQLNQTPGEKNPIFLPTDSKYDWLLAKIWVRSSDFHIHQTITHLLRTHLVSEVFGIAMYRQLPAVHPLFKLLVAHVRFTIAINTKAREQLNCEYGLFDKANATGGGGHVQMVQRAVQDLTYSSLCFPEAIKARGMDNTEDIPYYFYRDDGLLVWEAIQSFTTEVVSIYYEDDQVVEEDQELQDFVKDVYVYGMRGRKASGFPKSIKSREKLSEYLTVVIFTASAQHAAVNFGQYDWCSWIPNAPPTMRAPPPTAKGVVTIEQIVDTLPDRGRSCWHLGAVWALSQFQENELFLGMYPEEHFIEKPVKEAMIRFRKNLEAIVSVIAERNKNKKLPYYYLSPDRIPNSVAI
Assay: ARBL whole cell 5-lipoxygenase assay (LTB₄ formation in RBL-1 cells)
Type: cell-based
Conditions: A23187 stimulated, LTB₄ by RIA, read-out: ARBL Percent inhibition of cellular 5-lipoxygenase at 16 µM
Description: (§1) ARBL/ARBC Whole Cell 5-Lipoxygenase and Cyclooxygenase Assays The rat basophilic Leukemia cell line (RBL-1) was obtained from the American Type Culture Collection (Rockville, MD). Radioimmunoassay (RIA) kits of LTB₄ and PGF2α were obtained from Amersham (Arlington Heights, IL) and Seragen (Boston, MA), respectively. RBL-1 cells are grown in suspension culture in Eagle's minimum essential medium supplemented with 12% fetal bovine serum at 37°C in an incubator supplied with air-5% carbon dioxide. Cells are harvested by centrifugation. They are washed with cold phosphate buffered saline pH 7.4 (PBS; NaCl, 7.1 g; Na₂HPO₄, 1.15 g; KH₂PO₄, 0.2 g; and KCl, 0.2 g/l). Cells are finally suspended in PBS containing 1.0 mM calcium at a density of 2 x 10⁶ cells/ml. […] Calcium ionophore A23187 (5 µM) is added and cells are incubated for seven minutes at 37°C. The reaction is stopped by chilling the tubes on ice for ten minutes. Cells are separated by centrifugation and the supernatant is stored at -20°. Aliquots (100 µl) are analyzed for LTB₄ and PGF2α using radioimmunoassay kits as provided by the supplier. Table 1 contains biochemical data obtained from this whole cell assay as IC₅₀s which are calculated as the amount of test compound causing 50% inhibition of LTB₄ or PGF2α formation.

SMILES | inhibition at 16 µM
CC(C)(C)c1cc(C=C2SC(=O)NC2=O)cc(C(C)(C)C)c1O [Example 2, 5-[[3,5-Bis(1,1-dimethylethyl)-4-hydroxyphenyl]methylene]-2,4-thiazolidinedione] | 100%
CC(C)(C)c1cc(C=C2OC(=S)NC2=O)cc(C(C)(C)C)c1O [Example 14] | 92%
CC(C)(C)c1cc(C=C2OC(=O)NC2=O)cc(C(C)(C)C)c1O [Example 15] | 95%
COc1cc(C=C2OC(=O)NC2=O)cc(OC)c1O [Example 16, 5-[(4-Hydroxy-3,5-dimethoxyphenyl)methylene]-2,4-oxazolidinedione] | 67%

System: cellular 5-cyclooxygenase
Assay: ARBC whole cell cyclooxygenase assay (PGF2α formation in RBL-1 cells)
Type: cell-based, rat
Set-up: key: N inactive at screening concentration
Conditions: A23187 stimulated, PGF2α by RIA
Description: as §1

SMILES | ARBC Percent inhibition of cellular 5-cyclooxygenase at 16 µM
CC(C)(C)c1cc(C=C2SC(=O)NC2=O)cc(C(C)(C)C)c1O [Example 2, 5-[[3,5-Bis(1,1-dimethylethyl)-4-hydroxyphenyl]methylene]-2,4-thiazolidinedione] | 95%
CC(C)(C)c1cc(C=C2OC(=S)NC2=O)cc(C(C)(C)C)c1O [Example 14] | 86%
CC(C)(C)c1cc(C=C2OC(=O)NC2=O)cc(C(C)(C)C)c1O [Example 15] | 89%
COc1cc(C=C2OC(=O)NC2=O)cc(OC)c1O [Example 16, 5-[(4-Hydroxy-3,5-dimethoxyphenyl)methylene]-2,4-oxazolidinedione] | N^(4)

System: carrageenan footpad edema
Assay: Carrageenan-induced rat foot paw edema-2 (CFE-2) assay
Type: in vivo
Conditions: dose 1 mg/kg, dosed one hour before carrageenan, edema measured five hours after
Description: Carrageenan-Induced Rat Foot Paw Edema-2 (CEF-2) Assay: Protocol
Carrageenan solution (1% w/v) is prepared by dissolving 100 mg carrageenan (Marine Colloidal Div., Springfield, NJ) in 10 ml of sterile saline (0.9%) solution (Travenol). The solution is vortexed for 30 to 45 minutes. Animals are dosed with compound one hour before carrageenan challenge. Foot paw edema is induced by injecting 0.10 ml of the 1% carrageenan subcutaneously into the plantar portion of the right hind paw of each rat under light anesthesia. Initial foot paw volume is measured immediately following carrageenan challenge using mercury plethysmography (Buxco Electronics). Edemia is measured five hours after carrageenan. The difference between the five-hour and the initial paw volume is expressed as delta edema. The delta edema for each test group of animals is used to calculate the percent inhibition of edema achieved by the compound at the test dose compared with the vehicle control group. The ID₄₀ (the dose at which swelling is inhibited by 40%) is calculated by probit analysis for the dose at which 40 percent inhibition occurs.

SMILES | CFE Percent inhibition of carrageenan footpad edema (CFE) test
CC(C)(C)c1cc(C=C2SC(=O)NC2=O)cc(C(C)(C)C)c1O [Example 2, 5-[[3,5-Bis(1,1-dimethylethyl)-4-hydroxyphenyl]methylene]-2,4-thiazolidinedione] | 31.8 (1) %
CC(C)(C)c1cc(C=C2OC(=S)NC2=O)cc(C(C)(C)C)c1O [Example 14] | 44.1 (1) %
CC(C)(C)c1cc(C=C2OC(=O)NC2=O)cc(C(C)(C)C)c1O [Example 15] | 18.5 (1) %

Same assay, conditions: dose 3 mg/kg, dosed one hour before carrageenan, edema measured five hours after

SMILES | CFE Percent inhibition of carrageenan footpad edema (CFE) test
CC(C)(C)c1cc(C=C2SC(=O)NC2=O)cc(C(C)(C)C)c1O [Example 2, 5-[[3,5-Bis(1,1-dimethylethyl)-4-hydroxyphenyl]methylene]-2,4-thiazolidinedione] | 39.8 (3) %
CC(C)(C)c1cc(C=C2OC(=S)NC2=O)cc(C(C)(C)C)c1O [Example 14] | 41.1 (3) %
CC(C)(C)c1cc(C=C2OC(=O)NC2=O)cc(C(C)(C)C)c1O [Example 15] | 23.5 (3) %

Same assay, conditions: dose 10 mg/kg, dosed one hour before carrageenan, edema measured five hours after

SMILES | CFE Percent inhibition of carrageenan footpad edema (CFE) test
CC(C)(C)c1cc(C=C2SC(=O)NC2=O)cc(C(C)(C)C)c1O [Example 2, 5-[[3,5-Bis(1,1-dimethylethyl)-4-hydroxyphenyl]methylene]-2,4-thiazolidinedione] | 53.7 (10) %
CC(C)(C)c1cc(C=C2OC(=S)NC2=O)cc(C(C)(C)C)c1O [Example 14] | 32.1 (10) %
CC(C)(C)c1cc(C=C2OC(=O)NC2=O)cc(C(C)(C)C)c1O [Example 15] | 36.8 (10) %

Same assay, conditions: dose 30 mg/kg, dosed one hour before carrageenan, edema measured five hours after

SMILES | CFE Percent inhibition of carrageenan footpad edema (CFE) test
CC(C)(C)c1cc(C=C2SC(=O)NC2=O)cc(C(C)(C)C)c1O [Example 2, 5-[[3,5-Bis(1,1-dimethylethyl)-4-hydroxyphenyl]methylene]-2,4-thiazolidinedione] | 58.8 (30) %
CC(C)(C)c1cc(C=C2OC(=S)NC2=O)cc(C(C)(C)C)c1O [Example 14] | 40.4 (30) %
CC(C)(C)c1cc(C=C2OC(=O)NC2=O)cc(C(C)(C)C)c1O [Example 15] | 39.4 (30) %

— patent publication EP0343643B1, “Arylmethylenyl derivatives of thiazolidnones, imidazolidinones and oxazolidinones useful as antiallergy agents and antiinflamatory agents” (WARNER-LAMBERT COMPANY, priority 1988, dated 1989)
